In patent publication US6784164B2, “Choline binding proteins for anti-pneumococcal vaccines” (priority 1996, dated 2004):
Read-outs that look alike come from different tables or passages of the source. No end group written: not given here.

Columns and labels:
[1] = test system: Adherence of S. pneumoniae to immobilized fibronectin; assay type: cell-based; conditions: for inhibition of pneumococcal adherence to fibronectin: added to coated wells 15 min prior to bacteria
Description: (§1) Fibronectin, its recombinant fragments, or rsVCAM were noncovalently immobilized through passive adsorption to 60 well Terasaki trays (wettable polystyrene [plasma treated], Robbins Scientific, Sunnyvale, Calif.). Briefly, substrates were reconstituted ([…]) in phosphate buffered saline (DPBS) and allowed to coat the Teresaki trays for 90 min at 37° C. […] Prior to use, the plates were washed five times with DPBS and excess liquid was removed from the wells.
(§2) Bacteria were labeled with fluorescein isothyocyanate as described [Geelen et al., Infect. Immun., 61:1538-1543 (1993)] and were resuspended in DPBS supplemented with 0.05% glucose and Ca^++ and Mg^++. Bacterial suspensions were brought to an A620 of 0.04, previously established to equal 1×10^7 cfu/ml of S. pneumoniae. 10 μl of bacteria were added to each well and incubated statically for 1 hour at 37° C. Unbound bacteria were eliminated by washing five times with DPBS. Bound bacteria were fixed to the surface by incubation with 2.5% glutaraldehyde solution for 3 minutes. Bacteria were counted visually with an inverted microscope (Nikon) equipped for fluorescence with an IF DM 510 filter. Binding was expressed as the number of attached bacteria per 0.25 mm^2 surface area. Values were corrected for non-specific binding by subtracting adherence to uncoated wells and are presented as the mean±standard deviation of at least 3 experiments with 3 to 6 wells/plate/experiment. For some experiments, binding was performed in the presence of rabbit polyclonal anti-pneumococcus R6 antibody or one of the following monoclonal antibodies: anti-choline (TEPC-15), anti-PspA Xi126 and XiR278 [McDaniel et al., Microb. Pathog., 13:261-9 (1992)]; anti-pneumococcal surface adhesin A PsaA [Sampson et al., Infect. Immun., 62:319-324 (1994)]; anti-VLA-4 (R & D Systems); and anti-VCAM-1 (R & D Systems). Alternatively, potential inhibition of pneumococcal binding was assessed in the presence of purified recombinant PspA or PsaA.

[2] = Antigenicity: CBPs injected into rabbits, sera tested by Western blot; set-up: species or system rabbit
Description: Vaccine candidates must be antigenic. The CBPs from choline agarose chromatography were injected into rabbits and sera tested for cross reactivity. Several proteins produced a strong signal. Prominent were CBPs 112, 90, 84 and 70, and 50 (FIGS. 1 and 2).
White rabbits were immunized by intradermal injection in the back with 500 μg purified CBPs in 1 ml of a 1:1 emulsion of buffer and Complete Freund's Adjuvant. The rabbits were boosted with a subcutaneous dorsal injection of 250 μg of purified CBPs in 1 ml of 1:1 buffer to Incomplete Freund's Adjuvant at weeks 3, 6, 9, 12, and 15. Rabbits were pre-bled, and test bled approximately 10 days prior to each boost. Serum obtained at week 16 were used in all experiments.
(§3) The CBPs were examined by SDS-PAGE and Western blot using the following antibodies: (1) polyclonal anti-pneumococcal serum (rabbit or “ROB”); (2) anti-PspA monoclonal antibody; (3) anti-FITC monoclonal antibody; (4) convalescent human anti-pneumococcal sera and (5) polyclonal anti-CBP antibody. 9 CBPs were identified on SDS-PAGE/Western blot.

S. pneumoniae = assay: Direct adherence of S. pneumoniae to wells coated with VCAM-1, fibronectin fragments, peptides or enolase; assay type: cell-based
Description: as §1, §2

[3] = Western blot of CBPs with pooled human convalescent sera
Description: as §3
The CBPs were analyzed by 7.5% sodium dodecyl sulfate polyacrylamide gel electrophoresis (SDS-PAGE) and by Western blotting after electrophoretic transfer to an Immobilon-P transfer membrane (Millipore Corporation, Bedford, Mass.). For some experiments, pneumococci were labelled with fluorescein isothiocyanate (FITC) as described in the adherence assay. Western blot analysis was carried out with anti-FITC (Moleular Probes), anti-CBP or covalescent antisera each at a dilution of 1:1000. Bound antibody was detected with peroxidase conjugated goat anti-rabbit serum detected with the Chemiluminesce Kit from Amersham (Cambridge, Mass.). The convalescent sera was a mixture of sera pooled from five patients collected one month after recovery from bacteremia and pneumonia. The capsular serotypes of these infecting pneumococci were 3, 7, 14, 22, and 23.

Molecule: NCCCCCC(=O)O [6-amino hexanoic acid]
- inhibition of pneumococcal adherence to fibronectin (in words) [1]: not able to inhibit adherence

Molecule: NCCCC[C@H](N)C(=O)O [L-lysine]
- inhibition of pneumococcal adherence to fibronectin ([1]; 0.1 M): 67%
- inhibition of pneumococcal adherence to fibronectin ([1]; 0.5M): 95%
- inhibition of pneumococcal adherence to fibronectin ([1]; 1 M): 99%

Molecule: C[N+](C)(C)CCO [choline]
- decrease in binding of pneumococci to fibronectin ([1]; preincubation of bacteria in 10% choline solution): greater than 50%

Molecule: CBP84: pneumococcal choline binding protein, SEQ ID NO:3, 85% identical to Elongation Factor G (XREFSLEKTRNIGIMAHVDAGKT; X: residue not identified in the source)
- signal with sera of rabbits injected with CBPs [2]: strong signal

Molecule: WQPPRARI [FN5]
- direct adherence of S. pneumoniae to coated substrate (in words) (S. pneumoniae): able to support adherence

B1: CBP112: 112 kDa surface exposed pneumococcal choline binding protein, N-terminal SEQ ID NO:1 (protein)
chain: MMREIQLDRRKHTQNVALNIKLSAIKTKYLRELNVLEEKSKDELPSEIKAKLDAAFEKFKKDTLKPGEKVAEAKKKVEEAKKKAEDQKEEDRRNYPTNTYKTLELEIAEFDVKVKEAELELVKEEAKESRNEGTIKQAKEKVESKKAEATRLENIKTDRKKAEEEAKRKADAKLKEANVATSDQGKPKGRAKRGVPGELATPDKKENDAKSSDSSVGEETLPSSSLKSGKKVAEAEKKVEEAEKKAKDQKEEDRRNYPTNTYKTLDLEIAESDVKVKEAELELVKEEAKEPRDEEKIKQAKAKVESKKAEATRLENIKTDRKKAEEEAKRKAAEEDKVKEKPAEQPQPAPATQPEKPAPKPEKPAEQPKAEKTDDQQAEEDYARRSEEEYNRLTQQQPPKTEKPAQPSTPKTGWKQENGMWYFYNTDGSMATGWLQNNGSWYYLNANGAMATGWLQNNGSWYYLNANGSMATGWLQNNGSWYYLNANGAMATGWLQYNGSWYYLNSNGAMATGWLQYNGSWYYLNANGDMATGWLQNNGSWYYLNANGDMATGWLQYNGSWYYLNANGDMATGWVKDGDTWYYLEASGAMKASQWFKVSDKWYYVNGSGALAVNTTVDGYGVNANGEWVNZ
- signal with pooled human antisera from individuals recovering from pneumococcal disease [3]: strong signal
- signal with sera of rabbits injected with CBPs [2]: strong signal

B2: rsVCAM: recombinant soluble vascular cell adhesion molecule-1 (protein)
chain: FKIETTPESRYLAQIGDSVSLTCSTTGCESPFFSWRTQIDSPLNGKVTNEGTTSTLTMNPVSFGNEHSYLCTATCESRKLEKGIQVEIYSFPKDPEIHLSGPLEAGKPITVKCSVADVYPFDRLEIDLLKGDHLMKSQEFLEDADRKSLETKSLEVTFTPVIEDIGKVLVCRAKLHIDEMDSVPTVRQAVKELQVYISPKNTVISVNPSTKLQEGGSVTMTCSSEGLPAPEIFWSKKLDNGNLQHLSGNATLTLIAMRMEDSGIYVCEGVNLIGKNRKEVELIVQEKPFTVEISPGPRIAAQIGDSVMLTCSVMGCESPSFSWRTQIDSPLSGKVRSEGTNSTLTLSPVSFENEHSYLCTVTCGHKKLEKGIQVELYSFPRDPEIEMSGGLVNGSSVTVSCKVPSVYPLDRLEIELLKGETILENIEFLEDTDMKSLENKSLEMTFIPTIEDTGKALVCQAKLHIDDMEFEPKQRQSTQTLYVNVAPRDTTVLVSPSSILEEGSSVNMTCLSQGFPAPKILWSRQLPNGELQPLSENATLTLISTKMEDSGVYLCEGINQAGRSRKEVELIIQVTPKDIKLTAFPSESVKEGDTVIISCTCGNVPETWIILKKKAETGDTVLKSIDGAYTIRKAQLKDAGVYECESKNKVGSQLRSLTLDVQGRENNKDYFSPE
- density of S. pneumoniae adhering directly to coated wells (S. pneumoniae): 75±18 bacteria/0.25 mm ^2
- direct adherence as share of adherence to whole fibronectin (S. pneumoniae): 6%
- inhibition of adherence of S. pneumoniae to fibronectin ([1]; preincubation of the bacteria with the substance): 96%

B3: 2-phospho-D-glycerate hydrolyase (protein, UniProt P00924 2-437, looked up)
Enolase 1: AVSKVYARSVYDSRGNPTVEVELTTEKGVFRSIVPSGASTGVHEALEMRDGDKSKWMGKGVLHAVKNVNDVIAPAFVKANIDVKDQKAVDDFLISLDGTANKSKLGANAILGVSLAASRAAAAEKNVPLYKHLADLSKSKTSPYVLPVPFLNVLNGGSHAGGALALQEFMIAPTGAKTFAEALRIGSEVYHNLKSLTKKRYGASAGNVGDEGGVAPNIQTAEEALDLIVDAIKAAGHDGKIKIGLDCASSEFFKDGKYDLDFKNPNSDKSKWLTGPQLADLYHSLMKRYPIVSIEDPFAEDDWEAWSHFFKTAGIQIVADDLTVTNPKRIATAIEKKAADALLLKVNQIGTLSESIKAAQDSFAAGWGVMVSHRSGETEDTFIADLVVGLRTGQIKTGAPARSERLAKLNQLLRIEEELGDNAVFAGENFHHGDKL
notes: glycolytic enzyme enolase (Sigma), yeast
- direct adherence of S. pneumoniae to coated substrate (in words) (S. pneumoniae): No direct adherence
- maximum inhibition of pneumococcal adherence to fibronectin ([1]; 1000 U/ml, added to fibronectin coated wells prior to bacteria): 98%
